# Several values for one entry are separate records, joined by “and”; a condition that tells them apart may be missing. Identical values can stand only once. Entries after “also recorded” stand apart in the source; their conditions may differ.
# How the values were obtained:
# [1] = constant concentration 22 mM, human serum/1-octanol; cited from earlier work
# RBC [2] = assay: Blood counts of orally treated mice; format: in vivo, C57BL/6 mice; conditions: for RBC × 10^6/mm3: day 7, single mice, oral 27 mM for 4 days
# Text: Blood from mice, having ingested kf111 or IHP in water (for 4 days) or water only was collected on day 0, 7 and 11, in order to assess any differences in the blood count (and the amount of erythropoietin in the sera) of treated and control mice. […] Erythropoietin assays in all mice sera will be reported soon.
# circulating RBC [3] = assay: Oral administration in drinking water, P50 of circulating RBC; format: in vivo, C57BL/6 mice; conditions: for P50 10 d %: P50 shift on day 10, single mice
# RBC [4] = assay: Blood counts of orally treated mice; format: in vivo, C57BL/6 mice; conditions: day 10, single mice; oral 27 mM for 4 days
# human RBCs = conditions: IHP encapsulated in human RBCs by continuous-flow electroporation; cited from earlier work
# porcine RBCs = assay: Intravenous injection in piglets, P50 of blood; format: in vivo, piglet; conditions: iv injection of 1 g/kg body weight; maximum
# Method: (§1) An in vivo-experiment was performed on one 8 week-old normal piglet (body weight: 17 kg). The piglet was anaesthesized with 5% Isoflurane, 0.7 L/min N2O and 2.0 L/min O2 for 20-30 minutes, when kf111 was injected, or blood was taken from the ear vein, respectively. The compound injected iv at a concentration of 27 g kf111/100 ml water (volume injected: 63 ml, pH 6.5, containing 17 g kf111=1 g/1 kg body weight) was not harmful to the animal, when injected into the piglet's ear vein over at least 10 minutes.
# (§2) Iv injection of 1 g kf111/kg body weight caused a significant right shift of the P50-value (up to 20%) in porcine RBCs. An almost saturated kf111 solution, pH 6.7, was injected intravenously into two piglets (both of ˜18 kg body weight) (27 g kf111/100 ml=1.5 g/kg body weight) over 20 minutes.
# pig whole blood = assay: In vitro P50 in whole blood after incubation with effector; format: cell-based; conditions: effector 60 mM
# Method: (§3) As usual, pH's for the compound-solutions were adjusted to ˜7.0, osmolarities for both solutions were determined (325-373 mOsM) prior to effectors, and whole blood volumes at 1:1 ratios were incubated.
# human whole blood = assay: as above; format: cell-based; conditions: effector 60 mM
# Method: as §3
# mouse whole blood = assay: as above; format: cell-based; conditions: effector 60 mM
# Method: as §3
# [5] = Blood counts and serum electrolytes of iv treated piglets; format: in vivo, piglet
# Text: Blood from the 2 piglets, having received kf111 (1 g/kg body weight) was collected before injection, 2 hrs after, and daily over a period of 14 days after injection, in order to assess any differences in the blood counts of treated and non treated piglets. The following conclusions for piglets having received 1 g kf111 per kg body weight can be drawn: • 1. […] Increasing numbers of reticulocytes were counted in blood samples of the injected animals taken 5-14 days after injection (up to 3.0% on day 14). • 4.
# Blood was taken from the heart of the dead animals for the determination of blood counts as well as the amount of sodium, potassium and calcium in the sera. All numbers of blood cells (hematocrit, white blood cells etc.) were halved. The amount of potassium and calcium was normal, while sodium was doubled (before injection: 120-140 mmol/L; after injection: 245 mmol/L). Apparently, the large amount of sodium in kf111 (6 Na^+/molecule) caused the death of the animals. It appears that up to 1 g kf111 per kg body weight can be injected iv, (if injected slowly) without harmful effects for the animals. […] The piglets were thirsty after the treatment. *a second piglets was injected with kf111 at this concentration, after 2 piglets had died after iv injection of 1.2 g kf111 (or even more) per kg body weight. • 2. Higher amounts of kf111, injected via iv, killed the animals. • 3. A 1 g kf111 per kg body weight—injection is necessary to cause a significant right shift of the P50 value (up to 20%). • 4. […] In piglets having received 1 g of kf111/kg body weight, a tendency to the decrease in hematocrit was observed. • 6. […] The number of reticulocytes decreased slightly 24 to 72 hrs after injection (from 1.5% to 0.5%). Starting with day 3 after injection of the allosteric effector, the number of reticulocytes increased by about 3% for a period of 14 days.
# circulating RBC [6] = assay: P50 shift of circulating RBC after (intraperitoneal) injection in mice; conditions: for P50 Shift % 2 h, Mean +/− SD / P50 Shift % 24 h, Mean +/− SD: 5 animals; for P50 Shift % 2 h / P50 Shift % 24 h: single animals
# whole blood = assay: In vitro incubation of whole blood of three species, summary statements; format: cell-based, human, mouse and pig
# Method: as §3
# [7] = Toxicity, general statements on the biological experiments; format: in vivo
# piglets = assay: Tolerability / lethality of iv injection in piglets; format: in vivo, piglet
# Method: as §1, §2
# C57BL/6 mice [8] = assay: Tolerability of intraperitoneal injection in mice; format: in vivo
# C57BL/6 mice [9] = assay: Tolerability of oral administration; format: in vivo; conditions: 27 mM in drinking water, 4 days
# Method: The sodium salt of the tri-pyrophosphate derivative of IHP (kf111) was dissolved in drinking (not deionized) water at a 20 g/L-concentration (=27 mM) and offered for drinking ad libitum. As in all experiments performed before, pH was adjusted to ˜7.0.
# Twelve C57BL/6 mice drank kf111 over 4 days ([…]). Three control mice drank either pure water, or a solution of IHP (inositol hexaphosphate) at the same concentration and pH as kf111 (4 mice). […] Blood was collected from the tail vein of the 19 C57BL/6 mice on day 0 (before treatment started), 1, 2, 4, 6, 7, 8, 10, 11 and 12, in order to measure P50 values.
# [10] = dead piglets after lethal iv dose
compound,measurement,setting,value
"O=P(O)(O)O[C@H]1[C@H](OP(=O)(O)O)[C@@H](OP(=O)(O)O)[C@H](OP(=O)(O)O)[C@@H](OP(=O)(O)O)[C@H]1OP(=O)(O)O [IHP, inositol hexaphosphate, reference compound]",equiv of ammonium ions required to reach Kos(in serum) of 1,[1],8 equiv
same,RBC × 10^6/mm3,RBC [2],9.6 × 10^6/mm3
same,P50 7 d %,"circulating RBC [3]; P50 shift on day 7, single mice, oral 27 mM for 4 days",3%
same,P50 10 d %,circulating RBC [3]; oral 27 mM for 4 days,0%
same,shift of the ODC,"circulating RBC [3]; oral in drinking water, same concentration as kf111",absence of shift
same,RBC × 10^6/mm3,RBC [4],10.77 × 10^6/mm3
same,P50 of IHP-modified RBCs,human RBCs,approximately 50 torr
"O=P1([O-])OP(=O)([O-])O[C@H]2[C@H](O1)[C@@H]1OP(=O)([O-])OP(=O)([O-])O[C@@H]1[C@H]1OP(=O)([O-])OP(=O)([O-])O[C@H]21.[Na+].[Na+].[Na+].[Na+].[Na+].[Na+] [kf111, Hexasodium Salt of Myo-inositol 1,6:2,3:4,5-Tripyrophosphate]",right shift of the P50-value,porcine RBCs,up to 20%
same,P50 Increase %,pig whole blood; 1:1,40%
same,P50 mm Hg,"pig whole blood; 1:1, control 32.2",45.2 mm Hg
same,P50 Increase %,human whole blood; 1:1,39%
same,P50 mm Hg,"human whole blood; 1:1, control 22.1",30.8 mm Hg
same,P50 Increase %,mouse whole blood; 1:1,29%
same,P50 mm Hg,"mouse whole blood; 1:1, control 36.7",47.4 mm Hg
same,number of other cells such as white blood cells,[5]; 1 g/kg iv,no major differences
same,reticulocytes,"[5]; 1 g/kg iv, day 14 (samples 5-14 days after injection), maximum",up to 3.0%
same,reticulocytes after decrease,"[5]; 1 g/kg iv, first 3 days (24 to 72 hrs) after injection",0.5%
same,hematocrit and number of RBC,"[5]; 1 g/kg iv, first days after injection",slight decrease
same,increase of the number of reticulocytes,"[5]; 1 g/kg iv, starting with day 3, for a period of 14 days",about 3%
same,amount of potassium and calcium in sera,[5]; [10],normal
same,"numbers of blood cells (hematocrit, white blood cells etc.)",[5]; [10],halved
same,sodium in sera after injection,"[5]; dead piglets, before injection 120-140 mmol/L",245 mmol/L
same,RBC × 10^6/mm3,RBC [2],6.60 × 10^6/mm3 and 5.73 × 10^6/mm3 and 6.35 × 10^6/mm3 and 5.64 × 10^6/mm3 and 5.45 × 10^6/mm3 and 8.76 × 10^6/mm3 and 7.70 × 10^6/mm3 and 6.54 × 10^6/mm3
same,number of RBC,RBC [2]; mice having ingested the compound for 4 days,reduced significantly
same,number of white blood cells,RBC [2]; treated vs control groups,no major differences
same,"right shift of the ODC of circulating RBC, % of the basal value",circulating RBC [6]; after ip injection,31%
same,"P50 Shift % 2 h, Mean +/− SD",circulating RBC [6]; ip 45 mM,11.8 +/− 1.16%
same,P50 Shift % 2 h,circulating RBC [6]; ip 45 mM,13% (2×) and 10% and 12% and 11%
same,"P50 Shift % 24 h, Mean +/− SD",circulating RBC [6]; ip 45 mM,13.6 +/− 1.02%
same,P50 Shift % 24 h,circulating RBC [6]; ip 45 mM,14% (2×) and 12% and 13% and 15%
same,"P50 Shift % 2 h, Mean +/− SD",circulating RBC [6]; ip 60 mM,16.9 +/− 3.48%
same,P50 Shift % 2 h,circulating RBC [6]; ip 60 mM,12% and 14% and 17% and 21% and 20.5%
same,"P50 Shift % 24 h, Mean +/− SD",circulating RBC [6]; ip 60 mM,17.2 +/− 2.1%
same,P50 Shift % 24 h,circulating RBC [6]; ip 60 mM,14% and 16% and 17% and 20% and 19%
same,"P50 Shift % 2 h, Mean +/− SD",circulating RBC [6]; ip 120 mM,26.0 +/− 2.28%
same,P50 Shift % 2 h,circulating RBC [6]; ip 120 mM,28% and 29% and 24% and 26% and 23%
same,"P50 Shift % 24 h, Mean +/− SD",circulating RBC [6]; ip 120 mM,24.8 +/− 2.7%
same,P50 Shift % 24 h,circulating RBC [6]; ip 120 mM,28% (2×) and 22% (2×) and 24%
same,"P50 Shift % 2 h, Mean +/− SD",circulating RBC [6]; ip 150 mM,27.0 +/− 1.78%
same,P50 Shift % 2 h,circulating RBC [6]; ip 150 mM,26% (2×) and 28% and 30% and 25%
same,"P50 Shift % 24 h, Mean +/− SD",circulating RBC [6]; ip 150 mM,25.8 +/− 2.78%
same,P50 Shift % 24 h,circulating RBC [6]; ip 150 mM,25% and 26% and 31% and 24% and 23%
same,lysis of RBCs,whole blood; in vitro incubation with whole blood,never occurred; also recorded: no lysis of RBCs was observed
same,"right shift in the Hb-O2 dissociation curve, all blood samples","whole blood; whole blood of human, mouse and pig, 60 mM",up to 40%
same,P50 10 d %,circulating RBC [3]; oral 27 mM for 4 days,10% and 6% and 12% and 16% and 8% and 11% and 9%
same,right shift of P50,"circulating RBC [3]; oral, 20 g/L (27 mM) in drinking water over 4 days, maximum",up to 31%
same,toxicity,[7]; even in a concentration of 160 mM,no toxicity
same,toxicity / tolerability,[7]; general statement,no toxicity and excellent tolerability
same,harmfulness of iv injection,"piglets; 1 g/kg body weight, injected slowly (at least 10 min)",not harmful
same,outcome of iv injection of almost saturated solution,"piglets; 27 g/100 ml, 1.5 g/kg planned over 20 minutes, two piglets",Both piglets died
same,dose that can be injected iv without harmful effects,piglets; if injected slowly,up to 1 g kf111 per kg body weight
same,dose received at which piglets died,"piglets; iv, saturated solution",< 1.3 g/kg body weight
same,tolerability in mice,C57BL/6 mice [8]; concentration of (up to) 120 mM,well tolerated
same,tolerability in mice,"C57BL/6 mice [8]; ip, concentrations up to 150 mM",well tolerated
same,RBC × 10^6/mm3,RBC [4],9.35 × 10^6/mm3 and 8.60 × 10^6/mm3 and 8.95 × 10^6/mm3 and 8.88 × 10^6/mm3 and 8.70 × 10^6/mm3 and 8.73 × 10^6/mm3 and 7.65 × 10^6/mm3 and 7.80 × 10^6/mm3
same,harmfulness when applied orally,C57BL/6 mice [9],not harmful

# Source: patent US7919481B2, “Inositol pyrophosphates, and methods of use thereof” (NormOxys, Inc., priority 2002, dated 2011)
